Measured values from patent US8771665B2 (Cocrystal Discovery, Inc., priority 2010, dated 2014).

Target: T1, HCV1b NS5B polymerase delta 21 (Hepatitis C virus genotype 1b, UniProt P26663)
T1 construct: purified HCV1b NS5B polymerase delta 21
Assay: RNA-Dependent RNA HCV NS5B (Polymerase) Assay and IC50 Determination
Format: biochemical
Description: RNA-Dependent RNA HCV NS5B (Polymerase) Assay and IC50 Determination
In vitro RNA-dependent RNA polymerase activity was determined in a reaction mixture (50 μL) containing 50 mM Tris-HCl, pH 7.5, 5 mM MgCl2, 1 mM dithiothreitol, 0.5% Triton® X-100, 10 μM of UTP, 0.1-0.5 μCi of α-^32P UTP (Perkin Elmer Life Sciences), 1 μg of polyA:U16 (Midland Oligo), and 0.6 μg of purified HCV1b NS5B polymerase delta 21. Different concentrations of compounds were added to the reaction mixtures. The reaction was carried out at RT (23° C.) for 60 min and then stopped by the addition of 100 μL of 50 mM EDTA. The reaction mixtures were filtered through either a DE81 membrane or a positively charged nylon membrane, and the membranes were then extensively washed with 30 mM sodium citrate, pH 7.0 and 300 mM NaCl. The radiolabeled RNA products were quantitated using a Storm™ Phosphorlmager™ (GE Life Sciences). IC50 values were calculated using GraFit 6 and GraphPad Prism 5 from triplicate assays.

T1 sequence (P26663 2420-2989): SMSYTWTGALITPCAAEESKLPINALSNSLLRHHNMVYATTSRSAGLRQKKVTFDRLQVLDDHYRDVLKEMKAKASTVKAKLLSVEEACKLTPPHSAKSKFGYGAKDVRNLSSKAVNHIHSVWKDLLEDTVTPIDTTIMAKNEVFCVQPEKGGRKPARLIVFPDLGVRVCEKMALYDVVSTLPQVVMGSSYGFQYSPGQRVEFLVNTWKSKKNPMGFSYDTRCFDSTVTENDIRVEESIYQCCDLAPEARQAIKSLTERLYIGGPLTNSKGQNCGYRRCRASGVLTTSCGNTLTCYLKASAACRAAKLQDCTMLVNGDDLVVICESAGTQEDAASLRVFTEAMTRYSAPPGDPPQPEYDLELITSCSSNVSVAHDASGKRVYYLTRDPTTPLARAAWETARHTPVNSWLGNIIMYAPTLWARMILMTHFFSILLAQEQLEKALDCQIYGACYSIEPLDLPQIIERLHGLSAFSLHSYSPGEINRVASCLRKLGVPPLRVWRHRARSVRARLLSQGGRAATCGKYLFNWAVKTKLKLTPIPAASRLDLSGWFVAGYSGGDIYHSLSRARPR

| SMILES | IC50 |
| --- | --- |
| CC1CCC(C2=C(c3cc(I)sc3C(=O)O)CCN(C)C2)CC1 (stereo not drawn) [Example 002, 5-Iodo-3-[1-methyl-5-(4-methyl-cyclohexyl)-1,2,3,6-tetrahydro-pyridin-4-yl]-thiophene-2-carboxylic acid] | > 10 µM |
| CC1CCC(C2=C(c3cc(-c4ccc(N)cc4)sc3C(=O)O)CCN(C)C2)CC1 (stereo not drawn) [Example 004, 5-(4-Amino-phenyl)-3-[1-methyl-5-(4-methyl-cyclohexyl)-1,2,3,6-tetrahydro-pyridin-4-yl]-thiophene-2-carboxylic acid] | < 3 µM |
| CC1CCC(C2=C(c3cc(-c4ccccc4)sc3C(=O)O)CCN(CC3CC3)C2)CC1 (stereo not drawn) [Example 006, 3-[1-Cyclopropylmethyl-5-(4-methyl-cyclohexyl)-1,2,3,6-tetrahydro-pyridin-4-yl]-5-phenyl-thiophene-2-carboxylic acid] | < 3 µM |
| CCCCN1CCC(c2cc(-c3ccccc3)sc2C(=O)O)=C(C2CCC(C)CC2)C1 (stereo not drawn) [Example 007, 3-[1-Butyl-5-(4-methyl-cyclohexyl)-1,2,3,6-tetrahydro-pyridin-4-yl]-5-phenyl-thiophene-2-carboxylic acid] | < 3 µM |
| CC1CCC(C2=C(c3cc(-c4ccccc4)sc3C(=O)O)CCN(CCCO)C2)CC1 (stereo not drawn) [Example 008, 3-[1-(3-Hydroxy-propyl)-5-(4-methyl-cyclohexyl)-1,2,3,6-tetrahydro-pyridin-4-yl]-5-phenyl-thiophene-2-carboxylic acid] | < 3 µM |
| CC1CCC(C2=C(c3cc(-c4ccccc4)sc3C(=O)O)CCN(C(C)C)C2)CC1 (stereo not drawn) [Example 009, 3-[1-Isopropyl-5-(4-methyl-cyclohexyl)-1,2,3,6-tetrahydro-pyridin-4-yl]-5-phenyl-thiophene-2-carboxylic acid] | 3 to 10 µM |
| CC1CCC(C2=C(c3cc(C#Cc4ccccc4)sc3C(=O)O)CCN(C)C2)CC1 (stereo not drawn) [Example 010, 3-[1-Methyl-5-(4-methyl-cyclohexyl)-1,2,3,6-tetrahydro-pyridin-4-yl]-5-phenylethynyl-thiophene-2-carboxylic acid] | > 10 µM |
| CC1CCC(C2=C(c3cc(C#CC(C)(C)O)sc3C(=O)O)CCN(C)C2)CC1 (stereo not drawn) [Example 011, 5-(3-Hydroxy-3-methyl-but-1-ynyl)-3-[1-methyl-5-(4-methyl-cyclohexyl)-1,2,3,6-tetrahydro-pyridin-4-yl]-thiophene-2-carboxylic acid] | < 3 µM |
| CC1CCC(C2=C(c3cc(-c4ccc(NC(=O)OC(C)(C)C)cc4)sc3C(=O)O)CCN(C)C2)CC1 (stereo not drawn) [Example 012, 5-(4-tert-Butoxycarbonylamino-phenyl)-3-[1-methyl-5-(4-methyl-cyclohexyl)-1,2,3,6-tetrahydro-pyridin-4-yl]-thiophene-2-carboxylic acid] | > 10 µM |
| COC(=O)c1sc(-c2ccc(NC(=O)c3cscn3)cc2)cc1C1=C(C2CCC(C)CC2)CN(C)CC1 (stereo not drawn) [Example 013A] | < 3 µM |
| CCN1CCC(c2cc(C#CC(C)(C)C)sc2C(=O)O)=C(C2CCC(C)CC2)C1 (stereo not drawn) [Example 014, 5-(3,3-Dimethyl-but-1-ynyl)-3-[1-ethyl-5-(4-methyl-cyclohexyl)-1,2,3,6-tetrahydro-pyridin-4-yl]-thiophene-2-carboxylic acid] | < 3 µM |
| CCN1CCC(c2cc(-c3ccc(-c4cc5ncccn5n4)cc3)sc2C(=O)O)=C(C2CCC(C)CC2)C1 (stereo not drawn) [Example 015, 3-[1-Ethyl-5-(4-methyl-cyclohexyl)-1,2,3,6-tetrahydro-pyridin-4-yl]-5-(4-pyrazolo[1,5-a]pyrimidin-2-yl-phenyl)-thiophene-2-carboxylic acid] | < 3 µM |
| CCN1CCC(c2cc(C#CC3CCCCC3)sc2C(=O)O)=C(C2CCC(C)CC2)C1 (stereo not drawn) [Example 016, 5-Cyclohexylethynyl-3-[1-ethyl-5-(4-methyl-cyclohexyl)-1,2,3,6-tetrahydro-pyridin-4-yl]-thiophene-2-carboxylic acid] | > 10 µM |
| CCN1CCC(c2cc(C#CC3CC3)sc2C(=O)O)=C(C2CCC(C)CC2)C1 (stereo not drawn) [Example 017, 5-Cyclopropylethynyl-3-[1-ethyl-5-(4-methyl-cyclohexyl)-1,2,3,6-tetrahydro-pyridin-4-yl]-thiophene-2-carboxylic acid] | < 3 µM |
| CCN1CCC(c2cc(-c3ccc(NC(C)=O)cc3)sc2C(=O)O)=C(C2CCC(C)CC2)C1 (stereo not drawn) [Example 018, 5-(4-Acetylamino-phenyl)-3-[1-ethyl-5-(4-methyl-cyclohexyl)-1,2,3,6-tetrahydro-pyridin-4-yl]-thiophene-2-carboxylic acid] | 3 to 10 µM |
| CCN1CCC(c2cc(-c3ccc(NC(=O)c4cscn4)cc3)sc2C(=O)O)=C(C2CCC(C)CC2)C1 (stereo not drawn) [Example 019, 3-[1-Ethyl-5-(4-methyl-cyclohexyl)-1,2,3,6-tetrahydro-pyridin-4-yl]-5-{4-[(thiazole-4-carbonyl)-amino]-phenyl}-thiophene-2-carboxylic acid] | < 3 µM |
| CCN1CCC(c2cc(-c3ccc(NC(=O)c4ccccc4)cc3)sc2C(=O)O)=C(C2CCC(C)CC2)C1 (stereo not drawn) [Example 020, 5-(4-Benzoylamino-phenyl)-3-[1-ethyl-5-(4-methyl-cyclohexyl)-1,2,3,6-tetrahydro-pyridin-4-yl]-thiophene-2-carboxylic acid] | 3 to 10 µM |
| CCN1CCC(c2cc(C#CC(C)(C)N)sc2C(=O)O)=C(C2CCC(C)CC2)C1 (stereo not drawn) [Example 021, 5-(3-Amino-3-methyl-but-1-ynyl)-3-[1-ethyl-5-(4-methyl-cyclohexyl)-1,2,3,6-tetrahydro-pyridin-4-yl]-thiophene-2-carboxylic acid] | < 3 µM |
| CCN1CCC(c2cc(C#CC(C)(C)NC(=O)c3cscn3)sc2C(=O)O)=C(C2CCC(C)CC2)C1 (stereo not drawn) [Example 022, 3-[1-Ethyl-5-(4-methyl-cyclohexyl)-1,2,3,6-tetrahydro-pyridin-4-yl]-5-{3-methyl-3-[(thiazole-4-carbonyl)-amino]-but-1-ynyl}-thiophene-2-carboxylic acid] | > 10 µM |
| CCN1CCC(c2cc(C#CC(C)(C)N(C)C)sc2C(=O)O)=C(C2CCC(C)CC2)C1 (stereo not drawn) [Example 023, 5-(3-Dimethylamino-3-methyl-but-1-ynyl)-3-[1-ethyl-5-(4-methyl-cyclohexyl)-1,2,3,6-tetrahydro-pyridin-4-yl]-thiophene-2-carboxylic acid] | < 3 µM |
| CCN1CCC(c2cc(-c3cccc(NC(C)=O)c3)sc2C(=O)O)=C(C2CCC(C)CC2)C1 (stereo not drawn) [Example 024, 5-(3-Acetylamino-phenyl)-3-[1-ethyl-5-(4-methyl-cyclohexyl)-1,2,3,6-tetrahydro-pyridin-4-yl]-thiophene-2-carboxylic acid] | > 10 µM |
| CCN1CCC(c2cc(-c3cccc(NC(=O)c4cscn4)c3)sc2C(=O)O)=C(C2CCC(C)CC2)C1 (stereo not drawn) [Example 025, 3-[1-Ethyl-5-(4-methyl-cyclohexyl)-1,2,3,6-tetrahydro-pyridin-4-yl]-5-{3-[(thiazole-4-carbonyl)-amino]-phenyl}-thiophene-2-carboxylic acid] | > 10 µM |
| CCN1CCC(c2cc(-c3cccc(N)c3)sc2C(=O)O)=C(C2CCC(C)CC2)C1 (stereo not drawn) [Example 026, 5-(3-Amino-phenyl)-3-[1-ethyl-5-(4-methyl-cyclohexyl)-1,2,3,6-tetrahydro-pyridin-4-yl]-thiophene-2-carboxylic acid] | 3 to 10 µM |
| CCN1CCC(c2cc(-c3cccc(NC(=O)c4cccs4)c3)sc2C(=O)O)=C(C2CCC(C)CC2)C1 (stereo not drawn) [Example 027, 3-[1-Ethyl-5-(4-methyl-cyclohexyl)-1,2,3,6-tetrahydro-pyridin-4-yl]-5-{3-[(thiophene-2-carbonyl)-amino]-phenyl}-thiophene-2-carboxylic acid] | > 10 µM |
| CCN1CCC(c2cc(-c3ccc(NC(=O)c4cccs4)cc3)sc2C(=O)O)=C(C2CCC(C)CC2)C1 (stereo not drawn) [Example 028, 3-[1-Ethyl-5-(4-methyl-cyclohexyl)-1,2,3,6-tetrahydro-pyridin-4-yl]-5-{4-[(thiophene-2-carbonyl)-amino]-phenyl}-thiophene-2-carboxylic acid] | < 3 µM |
| CCN1CCC(c2cc(C#CCC(C)C)sc2C(=O)O)=C(C2CCC(C)CC2)C1 (stereo not drawn) [Example 029, 3-[1-Ethyl-5-(4-methyl-cyclohexyl)-1,2,3,6-tetrahydro-pyridin-4-yl]-5-(4-methyl-pent-1-ynyl)-thiophene-2-carboxylic acid] | < 3 µM |
| CCCC(C)C#Cc1cc(C2=C(C3CCC(C)CC3)CN(CC)CC2)c(C(=O)O)s1 (stereo not drawn) [Example 030, 3-[1-Ethyl-5-(4-methyl-cyclohexyl)-1,2,3,6-tetrahydro-pyridin-4-yl]-5-(3-methyl-hex-1-ynyl)-thiophene-2-carboxylic acid] | > 10 µM |
| CCN1CCC(c2cc(C#CC3CCCC3)sc2C(=O)O)=C(C2CCC(C)CC2)C1 (stereo not drawn) [Example 031, 5-Cyclopentylethynyl-3-[1-ethyl-5-(4-methyl-cyclohexyl)-1,2,3,6-tetrahydro-pyridin-4-yl]-thiophene-2-carboxylic acid] | 3 to 10 µM |
| CCCC#Cc1cc(C2=C(C3CCC(C)CC3)CN(CC)CC2)c(C(=O)O)s1 (stereo not drawn) [Example 032, 3-[1-Ethyl-5-(4-methyl-cyclohexyl)-1,2,3,6-tetrahydro-pyridin-4-yl]-5-pent-1-ynyl-thiophene-2-carboxylic acid] | < 3 µM |
| CCOC(C#Cc1cc(C2=C(C3CCC(C)CC3)CN(CC)CC2)c(C(=O)O)s1)OCC (stereo not drawn) [Example 033, 5-(3,3-Diethoxy-prop-1-ynyl)-3-[1-ethyl-5-(4-methyl-cyclohexyl)-1,2,3,6-tetrahydro-pyridin-4-yl]-thiophene-2-carboxylic acid] | 3 to 10 µM |
